Results as given in US7258999B2, “PTH responsive gene” (Wyeth, priority 2002, dated 2007).

What was measured:
[1] = tested on: PAIGB expression in ROS 17/2.8 cells; assay: Real time PCR of PAIGB expression in ROS 17/2.8 cells; type: cell-based, rat; details: for effect on PAIGB expression after 4 hours of treatment: estrogen 10 nM, tamoxifen 0.1 μM, BMP2 300 ng/ml, calcitonin 5 ng/ml
Excerpt: Applicants performed multiplex real time PCR (TaqMan) analysis on previously DNAsed samples using gene specific probe and primers and 18S ribosomal RNA probe and primer sets purchased from Applied Biosystem. (Foster City, Calif.) The samples were DNAsed according to the protocol provided by Ambion (DNA-free kit). TaqMan probe and primers for PAIGB was identify using Primer Express computer program. The sequence for rat PAIGB TaqMan probe was 6FAM-5′[…] (SEQ ID NO: 16) forward and reverse primers were 5′[…] 3′ (SEQ ID NO:17) and 5′ […] 3′ (SEQ ID NO:18) respectively. The final concentrations for probes were 500 nM and 40 nM for PAIGB and 18S ribosomal RNA or GAPDH respectively. The concentrations of the primers were 500 nM for PAIGB forward and reversed primers while 18S primers were 10 and 20 nM for forward and reversed primer respectively or 40 nM for GAPDH primers. Standards for rat samples were made from rat tibia or brain RNA in the range of 250 ng to 0.1 ng, while standards for mouse specific TaqMan were made from mouse brain RNA and human standards from human brain RNA (Clonetech, Palo Alto, Calif.) spanning the same range of concentration. Primers and probes for mouse PAIGB were: forward 5′ […] 3′ (SEQ ID NO:19), reverse, 5′ […] (SEQ ID NO:21). Primers and probes for human PAIGB were: forward 5′ […] 3′ (SEQ ID NO:22), reverse 5′ […] 3′(SEQ ID NO: 24). The Taq-man analysis was done using ABI 7700 Sequence Detector under following conditions: 30 min at 48° C., 10 min at 95° C. and 40 cycles of 15 sec at 95° C. and 60 sec at 60° C. Analysis of real-time PCR analysis was performed using (Sequence Detector, Macintosh) program.
Five cell types were primarily used in our experiments. Rat osteoblast cell line (ROS 17/2.8) that expresses moderate levels of PTH receptor 1 (Rodan et al, Rev. Eukaryotic Gene Expression 1:85-98, 1991) were used to perform in vitro experiments. ROS cells were maintained under standard cell culture conditions: 10% heat inactivated FBS in Dulbecco's Modified Eagle Medium with Nutrient Mixture F-12 (DMEM/F12) media, 1% Penicillin/Streptomycin and 1% Glutamax. Mouse cell line C3H10T½ (ATCC# CCL226) as a representative of mouse osteoprogenitor cell line were maintained in Eagles Minimal Essential Media (EMEM) with the addition of 10% heat inactivated FBS and 1% Penicillin/Streptomycin and 1% Glutamax. UMR106 rat osteoblastic cells (ATCC# CRL1661) were cultured in Dulbecco's Modified Eagle Medium (DMEM) supplemented with 10% heat inactivated FBS, 1% Penicillin/Streptomycin and 1% Glutamax. The U2OS human osteoblastic cells (ATCC# HTB96) were cultured in McCoy's 5A Medium Modified supplemented with 10% FBS, 1% Penicillin/Streptomycin and 1% Glutamax. The human HOB-03-CE6 cell line (Bodine, V. N. P., et. al., J. Cell. Biochem., 65: 368-387,1997) was maintained in phenol red free DMEM/F12 media supplemented with 10% heat inactivated FBS and 1% Penicillin/Streptomycin and 1% Glutamax.
ROS 17/2.8 rat osteoblast cell line that express PTH receptor (˜80000 receptors/cell) were treated with increased doses of PTH: 1 nM, 10 nM, 100 nM and 1000 nM. Real time PCR using rat specific Taq-man probes and primers were used to examine the changes in PAIGB expression with PTH treatment.
Time course of PTH induction of PAIGB expression was examined. ROS 17/2.8_cells were treated with 10 nM PTH and RNA was harvested at 1, 2, 4, 6, 8 and 24 hours post treatment.

[2] = tested on: PAIGB expression in UMR106 cells; assay: Real time PCR of PAIGB expression in UMR106 cells; type: cell-based, rat
Excerpt: Applicants performed multiplex real time PCR (TaqMan) analysis on previously DNAsed samples using gene specific probe and primers and 18S ribosomal RNA probe and primer sets purchased from Applied Biosystem. (Foster City, Calif.) The samples were DNAsed according to the protocol provided by Ambion (DNA-free kit). TaqMan probe and primers for PAIGB was identify using Primer Express computer program. The sequence for rat PAIGB TaqMan probe was 6FAM-5′[…] (SEQ ID NO: 16) forward and reverse primers were 5′[…] 3′ (SEQ ID NO:17) and 5′ […] 3′ (SEQ ID NO:18) respectively. The final concentrations for probes were 500 nM and 40 nM for PAIGB and 18S ribosomal RNA or GAPDH respectively. The concentrations of the primers were 500 nM for PAIGB forward and reversed primers while 18S primers were 10 and 20 nM for forward and reversed primer respectively or 40 nM for GAPDH primers. Standards for rat samples were made from rat tibia or brain RNA in the range of 250 ng to 0.1 ng, while standards for mouse specific TaqMan were made from mouse brain RNA and human standards from human brain RNA (Clonetech, Palo Alto, Calif.) spanning the same range of concentration. Primers and probes for mouse PAIGB were: forward 5′ […] 3′ (SEQ ID NO:19), reverse, 5′ […] 3′ (SEQ ID NO:20) anti-sense and probe 5′ 6FAM-[…] (SEQ ID NO:21). Primers and probes for human PAIGB were: forward 5′ […] 3′ (SEQ ID NO:22), reverse 5′ […] […]

**Q.** Which “induction of PAIGB mRNA expression” value ([1]; two concentrations 10 nM and 10 μM, 4 hours) does the source give for CCCCC[C@H](O)/C=C/[C@H]1[C@H](O)CC(=O)[C@@H]1C/C=C\CCCC(=O)O [PGE2, prostaglandin E2] here?
**A.** The value was “only at the lower dose”.

**Q.** What does the source list for COc1ccc(C2CNC(=O)C2)cc1OC1CCCC1 (stereo not shown) [Rolipram]?
**A.** PAIGB expression ([1]; ROS 17/2.8 cells, data not shown): Increases; PAIGB expression ([2]; UMR 106 cells, data not shown): Increases

**Q.** Nc1ncnc2c1ncn2C1CCCO1 (stereo not shown) [SQ 22536] was tested. Which “blocking of the effect of PTH on PAIGB expression” value ([1]; 200 μM, 2 hours pretreatment, then 10 nM PTH 4 hours) did it give?
**A.** The value was “completely blocks”.

**Q.** C[C@@H]1C[C@H]2[C@@H]3CCC4=CC(=O)C=C[C@]4(C)[C@@]3(F)[C@@H](O)C[C@]2(C)[C@@]1(O)C(=O)CO [dexamethasone] was tested. Which “increase in PAIGB expression” value ([1]; 100 nM, 4 hours) did it give?
**A.** Its value is 2-3 fold.

**Q.** CC(C)NCC(O)c1ccc(O)c(O)c1 (stereo not shown) [isoproterenol] was tested. Which “increase in PAIGB expression” value ([1]; data not shown, concentration and cell line not restated) did it give?
**A.** The value was 2 fold.

**Q.** With CC/C(=C(\c1ccccc1)c1ccc(OCCN(C)C)cc1)c1ccccc1 [tamoxifen] as the molecule, how does the “effect on PAIGB expression after 4 hours of treatment” value ([1]; 4 hours) read?
**A.** Its value is “did not have any effect”.

**Q.** Which “PAIGB expression in UMR106 cells” value ([2]; UMR106 cells) does the source give for C=C1CC[C@H](O)C/C1=C/C=C1\CCC[C@]2(C)[C@@H]([C@H](C)CCCC(C)C)CC[C@@H]12 [vitamin D3] here?
**A.** Its value is “induced”.

**Q.** Which “blocking of PTH induced PAIGB expression” value ([1]; 10 μM, 2 hours pretreatment, then 10 nM PTH 4 hours) does the source give for “PKC inhibitor: Protein Kinase C inhibitor (PKC)19-27, an inhibitor of PKC signaling pathway (RFARKGALR; pseudosubstrate peptide; UniProt P17252 19-27, looked up, fragment)” here?
**A.** The value was “little to no effect”.

**Q.** How did the “effect on PAIGB expression after 4 hours of treatment” value ([1]; 4 hours) turn out when calcitonin was run?
**A.** The value was “did not have any effect”.
